In patent publication US20100119599A1 (ARCHER PHARMACEUTICALS, INC., priority 2006, published 2010):
Read-outs that look alike come from different tables or passages of the source.

Columns and labels:
Aβ1-40 = test: Measurement of Aβ1-40 in culture medium of 7W WT APP751 CHO cells by ELISA; type: cell-based, Chinese hamster; details: for activity at 5 µM: Cricetulus griseus, 5 μM test compound, CHO cells stably transfected with human APP751, culture medium, ELISA, control DMSO; for Aβ1-40 (% of control): CHO cells that overexpress APP751, zero = below the detection limit of the assay;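 for all read-outs here: 5 µM test compound but RI-coded compounds at 10 µM for 24 hours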
Aβ1-42 = test: Measurement of Aβ1-42 in culture medium of 7W WT APP751 CHO cells by ELISA; type: cell-based, Chinese hamster; details: for activity at 5 µM: Cricetulus griseus, 5 μM test compound, CHO cells stably transfected with human APP751, culture medium, ELISA, control DMSO; for Aβ1-42 (% of control): CHO cells that overexpress APP751, zero = below the detection limit of the assay;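 for Aβ1-42 (% of control): 5 µM test compound but RI-coded compounds at 10 µM for 24 hours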
[1] = Table 1, 0 = no detectable amount
[2] = Table 1, 0 = no detectable amount, read-out: Aβ1-42 (% of control)

Compound | activity at 5 µM (Aβ1-40; [1]) [%] | activity at 5 µM (Aβ1-42; [2]) [%] | further results
CC1=C(C(=O)OC2CCCC2)C(c2cccs2)C2=C(CCCC2=O)N1 (centres unmarked) [ST017171, cyclopentyl 2-methyl-5-oxo-4-(2-thienyl)-1,4,6,7,8-pentahydroquinoline-3-carboxylate] | 62.5 | 63.4 | –
CC1=C(C(=O)OCC2CCCO2)C(c2cccc(Cl)c2)C2=C(CC(c3cccs3)CC2=O)N1 (centres unmarked) [ST051818, oxolan-2-ylmethyl 4-(3-chlorophenyl)-2-methyl-5-oxo-7-(2-thienyl)-1,4,6,7,8-pentahydroquinoline-3-carboxylate] | 37 | 72.9 | –
COc1cccc(/C=c2/sc3n(c2=O)C(N)=C(C#N)C(c2cccc(OC)c2)C=3C#N)c1 (centres unmarked) [ST215713, 5-amino-7-(3-methoxyphenyl)-2-[(3-methoxyphenyl)methylene]-3-oxo-4,7-dihydro-1,3-thiazolidino[3,2-a]pyridine-6,8-dicarbonitrile] | – | – | Aβ1-40 (% of control) (Aβ1-40): 69.2 % of control; Aβ1-42 (% of control) (Aβ1-42): 80.48 % of control
CC1(C)CC(=O)C2=C(C1)N(Cc1ccccc1)C(N)=C(C#N)C2c1ccc(Cl)cc1 (centres unmarked) [ST047623, 2-amino-4-(4-chlorophenyl)-7,7-dimethyl-5-oxo-1-benzyl-1,4,6,7,8-pentahydroquinoline-3-carbonitrile] | 95.4 | 44.4 | –
COCCOC(=O)C1=C(C)NC2=C(C(=O)CCC2)C1c1ccc(N(C)C)cc1 (centres unmarked) [ST013251, 2-methoxyethyl 4-[4-(dimethylamino)phenyl]-2-methyl-5-oxo-1,4,6,7,8-pentahydroquinoline-3-carboxylate] | 89.4 | 58.6 | –
CCOC(=O)C1=CN(c2cc(C)ccc2C)C=C(C(=O)OCC)C1c1cc(OC)c(OC)c(OC)c1 [ST052491, ethyl 1-(2,5-dimethylphenyl)-5-(ethoxycarbonyl)-4-(3,4,5-trimethoxyphenyl)-1,4-dihydropyridine-3-carboxylate] | – | – | Aβ1-40 (% of control) (Aβ1-40): 70.29 % of control; Aβ1-42 (% of control) (Aβ1-42): 28.35 % of control
COCCOC(=O)C1=C(C)NC2=C(C(=O)CC(c3ccc(OC)cc3)C2)C1c1cccc(OC)c1 (centres unmarked) [ST017097, 2-methoxyethyl 4-(3-methoxyphenyl)-7-(4-methoxyphenyl)-2-methyl-5-oxo-1,4,6,7,8-pentahydroquinoline-3-carboxylate] | 68.2 | 80.9 | –
CC1=C(C(=O)OCC(C)C)C(c2ccccc2F)C2=C(CC(c3cccs3)CC2=O)N1 (centres unmarked) [ST051566, 2-methylpropyl 4-(2-fluorophenyl)-2-methyl-5-oxo-7-(2-thienyl)-1,4,6,7,8-pentahydroquinoline-3-carboxylate] | 63.4 | 96.1 | –
CCCOc1ccccc1C1C(C(=O)OCCOc2ccccc2)=C(C)NC2=C1C(=O)CC(C)(C)C2 (centres unmarked) [ST015105, 2-phenoxyethyl 2,7,7-trimethyl-5-oxo-4-(2-propoxyphenyl)-1,4,6,7,8-pentahydroquinoline-3-carboxylate] | 53 | 99.8 | –
CCn1c2ccccc2c2cc(C3C(C(=O)OC4CCCC4)=C(C)NC4=C3C(=O)CC(C)(C)C4)ccc21 (centres unmarked) [ST052173, cyclopentyl 4-(9-ethylcarbazol-3-yl)-2,7,7-trimethyl-5-oxo-1,4,6,7,8-pentahydroquinoline-3-carboxylate] | 64.7 | 32.5 | –
CC1=C(C(N)=O)C(c2ccccc2)C(C#N)=C(SCC(=O)Nc2cccc(C)c2)N1 (centres unmarked) [RI_30] | – | – | Aβ1-40 (% of control) (Aβ1-40): 94.9 % of control; Aβ1-42 (% of control) (Aβ1-42): 48.2 % of control
CCOCCOC(=O)C1=C(C)NC2=C(C(=O)CCC2)C1c1ccc(OC)c(OC)c1 (centres unmarked) [ST013341, 2-ethoxyethyl 4-(3,4-dimethoxyphenyl)-2-methyl-5-oxo-1,4,6,7,8-pentahydroquinoline-3-carboxylate] | 73 | 73.9 | –
COC(=O)C1=CN(CC2CCCO2)C=C(C(=O)OC)C1c1ccc(Cl)c(Cl)c1 (centres unmarked) [ST045237, methyl 4-(3,4-dichlorophenyl)-5-(methoxycarbonyl)-1-(oxolan-2-ylmethyl)-1,4-dihydropyridine-3-carboxylate] | – | – | Aβ1-40 (% of control) (Aβ1-40): 60.46 % of control; Aβ1-42 (% of control) (Aβ1-42): 50.77 % of control
CC1=C(C(=O)OC(C)C)C(c2ccc(Cl)cc2)C2=C(CC(C)(C)CC2=O)N1 (centres unmarked) [ST017213, methylethyl 4-(4-chlorophenyl)-2,7,7-trimethyl-5-oxo-1,4,6,7,8-pentahydroquinoline-3-carboxylate] | 44.4 | 91.4 | –
CC1=C(C(=O)OC2CCCCCC2)C(c2cccc(Br)c2)C2=C(CC(C)(C)CC2=O)N1 (centres unmarked) [ST024487, cycloheptyl 4-(3-bromophenyl)-2,7,7-trimethyl-5-oxo-1,4,6,7,8-pentahydroquinoline-3-carboxylate] | 5.07 | 3.77 | –
CCCOC(=O)C1=C(C)NC2=C(C(=O)CC(c3ccccc3)C2)C1c1ccc(Cl)cc1Cl (centres unmarked) [ST017293, propyl 4-(2,4-dichlorophenyl)-2-methyl-5-oxo-7-phenyl-1,4,6,7,8-pentahydroquinoline-3-carboxylate] | 57.7 | 95.2 | –

Compound | activity at 5 µM (Aβ1-40; [1]) [%] | activity at 5 µM (Aβ1-42; [2]) [%] | further results
CCOc1ccccc1C1C(C(=O)OCC(C)C)=C(C)NC2=C1C(=O)CC(c1ccc(Cl)cc1)C2 (centres unmarked) [ST017038, 2-methyipropyl 7-(4-chlorophenyl)-4-(2-ethoxyphenyl)-2-methyl-5-oxo-1,4,6,7,8-pentahydroquinoline-3-carboxylate] | 42.7 | 81.9 | –
CCC(C)OC(=O)C1=C(C)NC2=C(C(=O)CC(c3ccc(Cl)cc3)C2)C1c1cc(OC)c(OC)c(OC)c1 (centres unmarked) [ST017091, methylpropyl 7-(4-chlorophenyl)-2-methyl-5-oxo-4-(3,4,5-trimethoxyphenyl)-1,4,6,7,8-pentahydroquinoline-3-carboxylate] | 65.7 | 91 | –
N#CC1=C(N)NC(S)=C(C#N)C1c1cccc(Br)c1 (centres unmarked) [ST014065, 6-amino-4-(3-bromophenyl)-2-sulfanyl-1,4-dihydropyridine-3,5-dicarbonitrile] | – | – | Aβ1-40 (% of control) (Aβ1-40): 18.6 % of control; Aβ1-42 (% of control) (Aβ1-42): 30.01 % of control
COc1ccc(NC(=O)CSC2=C(C#N)C(c3cccs3)C(C(=O)Nc3ccccc3)=C(C)N2)cc1 (centres unmarked) [RI_58] | – | – | Aβ1-40 (% of control) (Aβ1-40): 23.1 % of control; Aβ1-42 (% of control) (Aβ1-42): 25.6 % of control
COC(=O)C1=CNC=C(C(=O)OC)C1c1cccc(OC)c1 [ST052261, methyl 5-(methoxycarbonyl)-4-(3-methoxyphenyl)-1,4-dihydropyridine-3-carboxylate] | – | – | Aβ1-40 (% of control) (Aβ1-40): 38.04 % of control; Aβ1-42 (% of control) (Aβ1-42): 57.24 % of control
CC1=C(C(=O)OCCOc2ccccc2)C(c2ccccc2Cl)C2=C(CC(C)(C)CC2=O)N1 (centres unmarked) [ST015096, 2-phenoxyethyl 4-(2-chlorophenyl)-2,7,7-trimethyl-5-oxo-1,4,6,7,8-pentahydroquinoline-3-carboxylate] | 28.1 | 80 | –
CCN(CC)c1ccc(C2C(C(=O)OC)=C(C)NC3=C2C(=O)CC(c2ccccc2Cl)C3)cc1 (centres unmarked) [ST015182, methyl 4-[4-(diethylamino)phenyl]-7-(2-chlorophenyl)-2-methyl-5-oxo-1,4,6,7,8-pentahydroquinoline-3-carboxylate] | 39.9 | 61.4 | –
CC1=C(C(=O)OCCOc2ccccc2)C(c2cccc(Oc3ccccc3)c2)C2=C(CC(C)(C)CC2=O)N1 (centres unmarked) [ST015055, 2-phenoxyethyl 2,7,7-trimethyl-5-oxo-4-(3-phenoxyphenyl)-1,4,6,7,8-pentahydroquinoline-3-carboxylate] | 13.6 | 78.2 | –
CCCCOC(=O)C1=C(C)NC2=C(C(=O)CC(C)(C)C2)C1c1ccccc1[N+](=O)[O-] (centres unmarked) [ST215464, butyl 2,7,7-trimethyl-4-(2-nitrophenyl)-5-oxo-1,4,6,7,8-pentahydroquinoline-3-carboxylate] | 62.7 | 90.7 | –
CCOc1ccc(C2C(C(=O)OCCc3ccccc3)=C(C)NC3=C2C(=O)CC(C)(C)C3)cc1 (centres unmarked) [ST015087, 2-phenylethyl 4-(4-ethoxyphenyl)-2,7,7-trimethyl-5-oxo-1,4,6,7,8-pentahydroquinoline-3-carboxylate] | 35.3 | 43.7 | –
CCCCCOC(=O)C1=C(C)NC2=C(C(=O)CCC2)C1c1cccc(O)c1 (centres unmarked) [ST017336, pentyl 4-(3-hydroxyphenyl)-2-methyl-5-oxo-1,4,6,7,8-pentahydroquinoline-3-carboxylate] | 62.9 | 72.7 | –
CCCOC(=O)C1=C(C)NC2=C(C(=O)CC(c3ccccc3)C2)C1c1ccc(CC)cc1 (centres unmarked) [ST017264, propyl 4-(4-ethylphenyl)-2-methyl-5-oxo-7-phenyl-1,4,6,7,8-pentahydroquinoline-3-carboxylate] | 29.7 | 48.2 | –
CCCCCOC(=O)C1=C(C)NC2=C(C(=O)CC(C)(C)C2)C1c1ccc(OCCC)cc1 (centres unmarked) [ST217244, pentyl 2,7,7-trimethyl-5-oxo-4-(4-propoxyphenyl)-1,4,6,7,8-pentahydroquinoline-3-carboxylate] | 24.9 | 41.5 | –
CCOC(=O)C1=CN(c2ccc(F)cc2)C=C(C(=O)OCC)C1c1cccs1 [ST052327, ethyl 5-(ethoxycarbonyl)-1-(4-fluorophenyl)-4-(2-thienyl)-1,4-dihydropyridine-3-carboxylate] | – | – | Aβ1-40 (% of control) (Aβ1-40): 57.74 % of control; Aβ1-42 (% of control) (Aβ1-42): 84.33 % of control
CCOC(=O)C1=C(C)NC(C)=C(C(=O)OCC)C1C(=O)O [ST007544, 3,5-bis(ethoxycarbonyl)-2,6-dimethyl-1,4-dihydropyridine-4-carboxylic acid] | – | – | activity at 5 µM (Aβ1-40; Table 3): 78.7%; activity at 5 µM (Aβ1-42; Table 3, read-out: Aβ-42 (% of control)): 80.1%
